The target in the assay is PAI-1 (Homo sapiens, UniProt P05121). In words: biochemical. The following applies: for inhibition at 20 µM: 20 μM (third part of Table 1); for inhibition at 20 µM / inhibition at 50 µM / inhibition at 100 µM / inhibition at 6.25 µM / inhibition at 12.5 µM / inhibition at 25 µM: read-out: Degree of inhibition in PAI chromogenic substrate assay; for pIC50: PAI chromogenic substrate assay, read-out: IC50.

pIC50: −log10 of the molar value. Where a name gives a salt, the structure may show the parent alone. Read-outs that look alike come from different tables or passages of the source.

Sequence of PAI-1 (P05121 24-402): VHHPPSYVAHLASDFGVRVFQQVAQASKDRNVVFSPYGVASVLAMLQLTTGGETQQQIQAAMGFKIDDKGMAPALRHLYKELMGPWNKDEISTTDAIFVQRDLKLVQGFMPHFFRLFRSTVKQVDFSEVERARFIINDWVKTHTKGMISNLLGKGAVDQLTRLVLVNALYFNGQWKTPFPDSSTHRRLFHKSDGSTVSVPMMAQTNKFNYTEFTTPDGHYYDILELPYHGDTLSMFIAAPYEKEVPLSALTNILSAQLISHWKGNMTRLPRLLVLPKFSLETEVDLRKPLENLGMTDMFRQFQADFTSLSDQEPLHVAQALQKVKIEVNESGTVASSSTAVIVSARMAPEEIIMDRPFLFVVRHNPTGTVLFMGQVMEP
Procedure: In this assay, a compound is incubated with PAI-1 prior to addition to the tPA assay system. Inhibition of PAI-1 results in the production of plasmin from plasminogen. In turn, plasmin cleaves the chromogenic substrate S2251 (Kabi Vitrum) producing pNA (p-nitroaniline) which is detected spectrophotometrically at 405 nm (K. Nilsson et al, Fibrinolysis (1987) 1, 163-168).
Compounds of formula (A) were tested in a PAI chromogenic substrate assay. In the assay (K.Nilsson, Fibrinolysis (1987) 1, 163-168) each compound was incubated with PAI-1 prior to addition to the tPA assay system. […] In turn, the plasmin cleaved the chromogenic substrate S2251 (Kabi-Vitrum) producing pNA (p-nitroaniline) which was detected spectrophotometrically at 405 nm.

The inhibition is the share of the control response that was lost under treatment. Take `CN(C)CCCOc1ccc(/C=c2\[nH]c(=O)/c(=C/c3ccccc3Br)[nH]c2=O)cc1` [Compound 5060.HCl, (3Z,6Z)-3-(2-Bromobenzylidene)-6-(4-(3-dimethylaminopropoxy)benzylidene)-2,5-piperazinedione]: the inhibition at 20 µM amounted to 52%. The inhibition at 50 µM (50 μM (third part of Table 1)) was 65%. For the same compound, the inhibition at 100 µM (100 μM (third part of Table 1)) turned out to be 75%.

`CN(C)CCOc1ccc(/C=c2\[nH]c(=O)/c(=C/c3ccc(F)cc3F)[nH]c2=O)cc1` [Compound 1977, (3Z,6Z)-3-(2,4-Difluorobenzylidene)-6-(4-(2-dimethylaminoethoxy)benzylidene)-2,5-piperazinedione]: for the setting “6.25 μM”, the inhibition at 6.25 µM came to 0%. In addition, for the setting “12.5 μM”, the inhibition at 12.5 µM was determined as 20%. For the same compound, the inhibition at 25 µM (25 μM) was determined as 47%. Further, the inhibition at 50 µM (50 μM) was found to be 47%. For the same compound, under “100 μM”, the inhibition at 100 µM amounted to 54%.

Compound `CN(C)CCOc1ccc(/C=c2\[nH]c(=O)/c(=C/c3ccccc3)[nH]c2=O)cc1` [Compound 1924, (3Z,6Z)-3-Benzylidene-6-(4-(2-dimethylaminoethoxy)benzylidene)-2,5-piperazinedione] came in with a Degree of inhibition in PAI chromogenic substrate assay (6.25 μM) of 9%; a Degree of inhibition in PAI chromogenic substrate assay (12.5 μM) of 7%; a Degree of inhibition in PAI chromogenic substrate assay (25 μM) of 18%; a Degree of inhibition in PAI chromogenic substrate assay (50 μM) of 38%; a Degree of inhibition in PAI chromogenic substrate assay (100 μM) of 64%.

One may read the pIC50 as −log10 of the IC50, conventionally taken in molar units. `CC(=O)Nc1cccc(/C=c2\[nH]c(=O)/c(=C/c3ccc(OCCCN(C)C)cc3)[nH]c2=O)c1` [Compound 5256, (3Z,6Z)-3-(3-Acetamidobenzylidene)-6-(4-(3-dimethylaminopropoxy)benzylidene)-2,5-piperazinedione]: the inhibition at 20 µM amounted to 10% and the pIC50 is 4.00. Moreover, where the note is “100 μM (third part of Table 1)”, the inhibition at 100 µM is 65%.

Turning to `CCCCOc1ccc(/C=c2\[nH]c(=O)/c(=C/c3ccc(OCCCN(C)C)cc3)[nH]c2=O)cc1` [Compound 5250], the inhibition at 20 µM worked out at 10% and the pIC50 is 4.85. The inhibition at 100 µM (100 μM (third part of Table 1)) turned out to be 25%.

`CN(C)CCOc1ccc(/C=c2\[nH]c(=O)/c(=C/c3c(Cl)cccc3Cl)[nH]c2=O)cc1` [Compound 1952]: for the setting “6.25 μM”, the inhibition at 6.25 µM amounted to 0%. Besides, the Degree of inhibition in PAI chromogenic substrate assay reads like this: (12.5 μM) 1%; (25 μM) 19%. Also, the inhibition at 50 µM (50 μM) is 37%. Also, the inhibition at 100 µM (100 μM) is 63%.

Turning to `CN(C)CCOc1ccccc1/C=c1\[nH]c(=O)/c(=C/c2ccccc2)[nH]c1=O` [Compound 1979, (3Z,6Z)-Benzylidene-3-(2-(2-dimethylaminoethoxy)benzylidene)-2,5-piperazinedione], the inhibition at 6.25 µM (6.25 μM) turned out to be 0%. The same compound came in with a Degree of inhibition in PAI chromogenic substrate assay (100 μM) of 37%.

Consider `CN(C)CCOc1ccc(/C=c2\[nH]c(=O)/c(=C/c3ccccc3)[nH]c2=O)c(Cl)c1.Cl` [Compound 1960, (3Z,6Z)-6-Benzylidene-3-(2-chloro-4-(2-dimethylaminoethoxy)benzylidene)-2,5-piperazinedione, hydrochloride], for which the Degree of inhibition in PAI chromogenic substrate assay (6.25 μM) is 56%, the Degree of inhibition in PAI chromogenic substrate assay (12.5 μM) was 63%, the Degree of inhibition in PAI chromogenic substrate assay (25 μM) is 67% and the Degree of inhibition in PAI chromogenic substrate assay (50 μM) came out at 64%. In addition, the inhibition at 100 µM (100 μM) was 32%.

In the case of `CC(=O)Nc1ccccc1/C=c1\[nH]c(=O)/c(=C/c2ccc(OCCCN(C)C)cc2)[nH]c1=O` [Compound 5248], the inhibition at 100 µM (100 μM (third part of Table 1)) is 10%.

Take `CN(C)CCCOc1ccc(/C=c2\[nH]c(=O)/c(=C/c3ccc(C(=O)NCCc4ccccc4)cc3)[nH]c2=O)cc1` [Compound 5345, N-Phenethyl-4-((3Z,6Z)-6-(4-(3-Dimethylaminopropoxy)benzylidene)-2,5-dioxo-3-piperazinylidene)methylbenzamide]: the inhibition at 20 µM came to 39%.

With `CN(C)CCCOc1ccc(/C=c2\[nH]c(=O)/c(=C/c3ccc([N+](=O)[O-])cc3)[nH]c2=O)cc1` [Compound 5230, (3Z,6Z)-3-(4-(3-dimethylaminopropoxy)benzylidene)-6-(4-nitrobenzylidene)-2,5-piperazinedione], the inhibition at 20 µM was 30% and the negative logarithm of the IC50 (pIC50) was 6.12. Besides, the inhibition at 100 µM (100 μM (third part of Table 1)) turned out to be 9%.

In the case of `Cc1cccc(/C=c2\[nH]c(=O)/c(=C/c3ccc(OCCCN(C)C)cc3)[nH]c2=O)c1` [Compound 5187, (3Z,6Z)-6-(4-(3-Dimethylaminopropoxy)benzylidene)-3-(3-methylbenzylidene)-2,5-piperazinedione], the inhibition at 20 µM came out at 10% and the pIC50 was 4.00. In addition, the inhibition at 100 µM (100 μM (third part of Table 1)) was 58%.

For `CN(C)CCCOc1ccc(/C=c2\[nH]c(=O)/c(=C/c3ccccc3[N+](=O)[O-])[nH]c2=O)cc1` [Compound 5208, (3Z,6Z)-6-(4-(3-Dimethylaminopropoxy)benzylidene)-3-(2-nitrobenzylidene)-2,5-piperazinedione], the inhibition at 20 µM was 10%. The inhibition at 100 µM (100 μM (third part of Table 1)) came out at 32%.

For `CN(C)CCCOc1ccc(/C=c2\[nH]c(=O)/c(=C/c3ccc(C(=O)Nc4ccccc4)cc3)[nH]c2=O)cc1` [Compound 5343, 4-((3Z,6Z)-6-(4-(3-Dimethylaminopropoxy)benzylidene)-2,5-dioxo-3-piperazinylidene)methylbenzanilide], the inhibition at 20 µM is 20%.

Turning to `CN(C)CCCOc1ccc(/C=c2\[nH]c(=O)/c(=C/c3ccc(F)cc3)[nH]c2=O)cc1` [Compound 5365.HCl, (3Z,6Z)-3-(4-(3-Dimethylaminopropoxy)benzylidene)-6-(4-fluorobenzylidene)-2,5-piperazinedione], the pIC50 was 5.48.

On to `CN(C)CCCOc1ccc(/C=c2\[nH]c(=O)/c(=C/c3ccc4c(c3)OCO4)[nH]c2=O)cc1` [Compound 5229, (3Z,6Z)-6-(4-(3-Dimethylaminopropoxy)benzylidene)-3-(3,4-methylenedioxybenzylidene)-2,5-piperazinedione], for which the pIC50 was 5.43.

For the compound `CN(C)CCCOc1ccc(/C=c2\[nH]c(=O)/c(=C/c3ccc(Cl)c([N+](=O)[O-])c3)[nH]c2=O)cc1` [Compound 5398, (3Z,6Z)-3-(4-Chloro-3-nitrobenzylidene)-6-(4-(3-dimethylaminopropoxy)benzylidene)-2,5-piperazinedione], the inhibition at 20 µM is 54% and the pIC50 is 5.38.

For `CN(C)CCCOc1ccc(/C=c2\[nH]c(=O)/c(=C/c3ccc4c(c3)OCO4)[nH]c2=O)cc1` [Compound 5201, (3Z,6Z)-6-(4-(3-Dimethylaminopropoxy)benzylidene)-3-(3,4-methylenedioxybenzylidene)-2,5-piperazinedione], the inhibition at 20 µM is 43% and the pIC50 is 5.60. In addition, the inhibition at 100 µM (100 μM (third part of Table 1)) was 47%.

With `CN(C)CCCOc1ccc(/C=c2\[nH]c(=O)/c(=C/c3ccc(C(F)(F)F)cc3)[nH]c2=O)cc1` [Compound 5239, (3Z,6Z)-3-(4-(3-Dimethylaminopropoxy)benzylidene)-6-(4-trifluoromethylbenzylidene)-2,5-piperazinedione], the inhibition at 20 µM was determined as 65% and the pIC50 is 5.15. In addition, the inhibition at 100 µM (100 μM (third part of Table 1)) was found to be 68%.

In the case of `CN(C)CCCOc1ccc(/C=c2\[nH]c(=O)/c(=C/c3cccc(C#N)c3)[nH]c2=O)cc1` [Compound 5232, (3Z,6Z)-3-(3-Cyanobenzylidene)-6-(4-(3-dimethylaminopropoxy)benzylidene)-2,5-piperazinedione], the inhibition at 100 µM (100 μM (third part of Table 1)) was determined as 10%.

Turning to `CCCCOc1ccc(/C=c2\[nH]c(=O)/c(=C/c3ccc(OCCCN(C)C)cc3)[nH]c2=O)cc1` [Compound 1920, (3Z,6Z)-3-(4-Butoxybenzylidene)-6-(4-(3-dimethylaminopropoxy)benzylidene)-2,5-piperazinedione], the inhibition at 6.25 µM (6.25 μM) is 33%. Moreover, the inhibition at 12.5 µM (12.5 μM) worked out at 50%. The inhibition at 25 µM (25 μM) was 57%. Moreover, under “50 μM”, the inhibition at 50 µM is 66%. For the setting “100 μM”, the inhibition at 100 µM was 68%.

With `CN(C)CCSCc1ccc(/C=c2\[nH]c(=O)/c(=C/c3ccccc3Br)[nH]c2=O)cc1` [Compound 5080.HCl, (3Z,6Z)-3-(2-Bromobenzylidene)-6-(4-(2-Dimethylaminoethylthiomethyl)benzylidene)-2,5-piperazinedione], the inhibition at 20 µM is 10%. Also, under “50 μM (third part of Table 1)”, the inhibition at 50 µM was found to be 48%. Also, the inhibition at 100 µM (100 μM (third part of Table 1)) turned out to be 62%.

In the case of `CN(C)CCCOc1ccc(/C=c2\[nH]c(=O)/c(=C/c3cccc(OC(F)(F)F)c3)[nH]c2=O)cc1` [Compound 5374, (3Z,6Z)-6-(4-(3-Dimethylaminopropoxy)benzylidene)-3-(3-trifluoromethoxybenzylidene)-2,5-piperazinedione], the pIC50 is 4.82.

For the compound `CN(C)CCOc1ccc(/C=c2\[nH]c(=O)/c(=C/c3ccccc3)[nH]c2=O)cc1` [Compound 1908, (3Z,6Z)-3-Benzylidene-6-(4-(2-dimethylaminoethoxy)benzylidene)-2,5-piperazinedione], the Degree of inhibition in PAI chromogenic substrate assay runs as follows: (6.25 μM) 12%; (12.5 μM) 29%; (25 μM) 66%; (50 μM) 69%; (100 μM) 74%.

As for `CN(C)CCOc1ccc(/C=c2\[nH]c(=O)/c(=C/c3ccccc3)[nH]c2=O)cc1OCCN(C)C` [Compound 1978, (3Z,6Z)-6-Benzylidene-3-(3,4-di-(2-dimethylaminoethoxy)benzylidene)-2,5-piperazinedione], the Degree of inhibition in PAI chromogenic substrate assay by setting is: (6.25 μM) 3%; (12.5 μM) 0%; (25 μM) 11%; (50 μM) 41%; (100 μM) 50%.

For the origin of these results see patent publication US5902812A, “Pharmaceutical piperazine compounds” (Xenova Limited, priority 1994, dated 1999).
